Experimental data from US4576625A, “Fertilizers containing urea with urease inhibitors” (Huls Aktiengesellschaft, priority 1983, dated 1986).
Several values for one entry are separate records, joined by “and”; a condition that tells them apart may be missing. Identical values can stand only once. One block for each compound: values may come before it.

Legend:
[1] = tested on: spring wheat, sirocco type; test: Pot tests with spring wheat, urea or AUS as leaf fertilizer with urease inhibitor (Table 8); format: in vivo
Text: (In the case of the test series with AUS and urea, equal quantities of N were used. The quantities of the urease inhibitors used were increased in the same way in both test series. If, however, the inhibitor material is related to the use of urea-N, this means that in the case of AUS double the quantity comes into play.)

rye grass [2] = test: Pot tests for rye grass, urea as soil fertilizer optionally with 2% urease inhibitors, compared with KAS (Table 7); format: in vivo; conditions: for N Absorption / Raw Protein % of Dry Subst / Dry Substance: 2% inhibitor where added; for Dry Substance: 5 cuttings
Experimental: (§1) The results of the tests in Mitscherlich pots are compiled in Tables 6 and 7.
In the experiments in Table 7 on rye grass, urea, with and without urease inhibitors, used as a soil fertilizer in application amounts between 0.5 and 1.0 g N/pot, was tested in comparison with KAS. As a product from the maleinimide group, Substance 64 from Table 1, i.e. N-methylmaleinimide was added; from the bromo-nitro compounds, Substance 1 of Table 2, bromo-2-nitropropyl-N-methylcarbamate was added. […] The yield of dry solids scarcely increases as the application of fertilizer increases from 0.75 to 1.0 g N both with urea fertilization alone as well as with the addition of a maleinimide compound.
(§2) The mixtures according to the invention used for the experiments of these tables were produced by powdering the urea prills with said bromo-nitro compounds; optionally, the prills can be sprayed before powdering with a hydrocarbon oil to improve adhesion. The bromo-nitro compounds soluble in liquid fertilizers containing urea pose no problems of distribution in dissolved fertilizers containing urea. In the case of slightly soluble bromo-nitro compounds, stirring must occur during the distribution. Optionally, solutizing agents can be added.

rye grass [3] = test: Pot experiments with rye grass, urea as soil fertilizer with various urease inhibitors (Table 6); format: in vivo; conditions: urea four times 1.0 g N/pot; inhibitor 2% of the urea quantity; loamy sand pH 5.6
Text: as §1
In Table 6 the various urease inhibitors as urea additives for soil fertilization are compared with one another. Both in overall crop yield as well as in N absorption and in raw protein content, the best results are achieved with bromo-nitro compounds. The maleic derivatives and the quinone product furnish poorer results.
as §2

urease = format: biochemical
rats = conditions: oral ingestion by rats; cited from earlier work
[4] = Critical relative humidity (water activity) of fertilizer solutions; format: physicochemical; conditions: 50% urea solution as for 100% salts; between 10° and 30° C.
[5] = AUS leaf fertilizer, inhibitor quantity 4 per 100 g urea-N
[6] = AUS leaf fertilizer, inhibitor quantity 8 per 100 g urea-N
[7] = urea solution leaf fertilizer, inhibitor quantity 2 per 100 g urea-N
[8] = urea solution leaf fertilizer, inhibitor quantity 4 per 100 g urea-N

SMILES: CNC(=O)OCC(C)(Br)[N+](=O)[O-] (centres unmarked) [Subst. 1-Tab. 3, 2-Bromo-2-nitro-propyl-N--methylcarbamate]
Dry Substance [1, 5]: 68.68 g/pot
N Absorption [1, 5]: 1058 mg/pot
Raw Protein [1, 5]: 9.63%
Dry Substance [1, 6]: 68.69 g/pot
N Absorption [1, 6]: 1051 mg/pot
Raw Protein [1, 6]: 9.56%
Dry Substance [1, 7]: 65.11 g/pot
N Absorption [1, 7]: 951 mg/pot
Raw Protein [1, 7]: 9.13%
Dry Substance [1, 8]: 68.36 g/pot
N Absorption [1, 8]: 1046 mg/pot
Raw Protein [1, 8]: 9.56%
N Absorption (rye grass [2]; N fertilization 0.5 g N/pot): 1432 mg/Pot
Raw Protein % of Dry Subst (rye grass [2]; N fertilization 0.5 g N/pot): 12.62%
Dry Substance (rye grass [2]; N fertilization 0.5 g N/pot): 70.9 g/Pot
N Absorption (rye grass [2]; N fertilization 0.75 g N/pot): 2095 mg/Pot
Raw Protein % of Dry Subst (rye grass [2]; N fertilization 0.75 g N/pot): 16.43%
Dry Substance (rye grass [2]; N fertilization 0.75 g N/pot): 79.7 g/Pot
N Absorption (rye grass [2]; N fertilization 1.0 g N/pot): 2720 mg/Pot
Raw Protein % of Dry Subst (rye grass [2]; N fertilization 1.0 g N/pot): 19.68%
Dry Substance (rye grass [2]; N fertilization 1.0 g N/pot): 86.4 g/Pot
comparison of fertilizer combinations (in words) (rye grass [2]; urea + 2% inhibitor): superior to the corresponding mixture with 2% of a maleinimide compound
Dry Substance 1st-5th Cutting (rye grass [3]): 131.7 g/Pot
N-absorption (rye grass [3]): 3.29 g/Pot
Raw Protein % in Dry Substance (rye grass [3]): 15.6%
N losses of the soil through NH3 volatilization as % of the urea-N quantities used (urease): 0.3% and 0.0%
N losses of the soil through NH3 volatilization calculated as % of the urea-N quantities used (urease): 0.0% and 1.2% and 0.1%

SMILES: CCC(Br)(COC(=O)NC)[N+](=O)[O-] (centres unmarked) [Subst. 2-Tab. 3, 2-Bromo-2-nitro-butyl-N--methylcarbamate]
N losses of the soil through NH3 volatilization as % of the urea-N quantities used (urease): 0.5% and 0.0%

SMILES: O=[N+]([O-])C(Br)(CO)CO [Subst. 3-Tab. 3, 2-Bromo-2-nitro-propan-1,3-diol]
LD50 (rats): 400 mg/kg
Dry Substance 1st-5th Cutting (rye grass [3]): 128.6 g/Pot
N-absorption (rye grass [3]): 3.15 g/Pot
Raw Protein % in Dry Substance (rye grass [3]): 15.3%
N losses of the soil through NH3 volatilization as % of the urea-N quantities used (urease): 0.9% and 0.0%
N losses of the soil through NH3 volatilization calculated as % of the urea-N quantities used (urease): 0.0% and 0.5%

SMILES: CC(Br)(CO)[N+](=O)[O-] (centres unmarked) [Subst. 4-Tab. 3, 2-Bromo-2-nitro-propanol]
Dry Substance 1st-5th Cutting (rye grass [3]): 127.8 g/Pot
N-absorption (rye grass [3]): 3.09 g/Pot
Raw Protein % in Dry Substance (rye grass [3]): 15.1%
N losses of the soil through NH3 volatilization as % of the urea-N quantities used (urease): 2.1% and 0.0%

SMILES: CC(C)(C)C(O)C(Br)[N+](=O)[O-] (centres unmarked) [Subst. 5-Tab. 3, 1-Bromo-1-nitro-3,3.dimethyl-butane-2-ol]
N losses of the soil through NH3 volatilization as % of the urea-N quantities used (urease): 4.7% and 0.0%

SMILES: CCCC(O)C(Br)[N+](=O)[O-] (centres unmarked) [Subst. 6-Tab. 3, 1-Bromo-1-nitro-pentanol-2]
N losses of the soil through NH3 volatilization as % of the urea-N quantities used (urease): 6.5% and 0.0%

SMILES: CCC(O)C(Br)[N+](=O)[O-] (centres unmarked) [Subst. 7-Tab. 3, 1-Bromo-1-nitro-butanol-2]
N losses of the soil through NH3 volatilization as % of the urea-N quantities used (urease): 8.3% and 0.0%

SMILES: CC(C)C(O)C(Br)[N+](=O)[O-] (centres unmarked) [Subst. 8-Tab. 3, 1-Bromo-1-nitro-3-methyl-butane-2-ol]
N losses of the soil through NH3 volatilization as % of the urea-N quantities used (urease): 10.0% and 0.1%

SMILES: CC(O)C(Br)[N+](=O)[O-] (centres unmarked) [Subst. 11-Tab. 3, 1-Bromo-1-nitro-propanol-2]
N losses of the soil through NH3 volatilization as % of the urea-N quantities used (urease): 2.3%

SMILES: O=C1C2C3C=CC(C3)C2C(=O)N1SC(Cl)(Cl)Cl (centres unmarked) [Subst. 23-Tab. 2, reference compound]
urease inhibitor effect (in words) (urease): No outstanding inhibitor effect

SMILES: O=C1C=CC(=O)C=C1 [Subst. 31-Tab. 1, 1,4-Benzoquinone]
Dry Substance 1st-5th Cutting (rye grass [3]): 118.3 g/Pot
N-absorption (rye grass [3]): 2.54 g/Pot
Raw Protein % in Dry Substance (rye grass [3]): 13.4%

SMILES: CC(=O)OCN1C(=O)C=CC1=O [Subst. 48-Tab. 1, N--Acetoximethylmaleinimide]
Dry Substance 1st-5th Cutting (rye grass [3]): 129.7 g/Pot
N-absorption (rye grass [3]): 2.85 g/Pot
Raw Protein % in Dry Substance (rye grass [3]): 13.7%
urease inhibitor effect (in words) (urease): best inhibitor effects

SMILES: CCN1C(=O)C=CC1=O [Subst. 56-Tab. 1, N--Ethylmaleinimide, reference compound]
urease inhibitor effect (in words) (urease): best inhibitor effects

SMILES: O=C1C=CC(=O)N1 [Subst. 61-Tab. 1, Maleinimide, reference compound]
urease inhibitor effect (in words) (urease): best inhibitor effects

SMILES: CN1C(=O)C=CC1=O [Subst. 64-Tab. 1, N--Methylmaleinimide, reference compound]
N Absorption (rye grass [2]; N fertilization 0.5 g N/pot): 1285 mg/Pot
Raw Protein % of Dry Subst (rye grass [2]; N fertilization 0.5 g N/pot): 11.66%
N Absorption (rye grass [2]; N fertilization 0.75 g N/pot): 1676 mg/Pot
Raw Protein % of Dry Subst (rye grass [2]; N fertilization 0.75 g N/pot): 12.82%
N Absorption (rye grass [2]; N fertilization 1.0 g N/pot): 1944 mg/Pot
Raw Protein % of Dry Subst (rye grass [2]; N fertilization 1.0 g N/pot): 14.84%
urease inhibitor effect (in words) (urease): best inhibitor effects

SMILES: O=C1C=CC(=O)N1CO [Subst. 66-Tab. 1, N--Methylolmaleinimide]
Dry Substance 1st-5th Cutting (rye grass [3]): 125.0 g/Pot
N-absorption (rye grass [3]): 2.85 g/Pot
Raw Protein % in Dry Substance (rye grass [3]): 14.3%
urease inhibitor effect (in words) (urease): best inhibitor effects

SMILES: O=C(Nc1ccccc1)OCN1C(=O)C=CC1=O [Subst. 68-Tab. 1, N--Methylolmaleinimide phenyl urethane]
Dry Substance 1st-5th Cutting (rye grass [3]): 124.0 g/Pot
N-absorption (rye grass [3]): 2.83 g/Pot
Raw Protein % in Dry Substance (rye grass [3]): 14.3%

CRH value (critical relative humidity) [4]: 75-76%
SMILES: NC(N)=O [urea]
